The text below walks through data of patent US20240385168A1, “SEMICONDUCTOR-BASED MEASUREMENT DEVICES” (CytoTronics, priority 2023, published 2024).

Series [1] relates to autosomal dominant polycystic kidney disease (ADPKD). The conditions noted are these: cited from earlier work.
The next series deals with MDCK cells. Kind of series: Live-cell impedance measurements of MDCK cells after compound treatment (water transport, doming). Type of series: cell-based, canine. The procedure: (§1) Impedance measurements were performed with two different electric field configurations named vertical field (VF) and lateral field (LF) and at four different frequencies of 250 Hz, 1 kHz, 4 kHz, and 16 kHz, as shown in FIG. 27A. In total, 9 impedance parameter maps were measured per field configuration, including magnitude and phase for the 4 frequencies and a Direct Current (DC, 0 Hz) magnitude. […] Connections were observed between biological information and measurements at frequency magnitudes, phases, and DC.
(§2) To perform field-based impedance measurements across multiple frequencies, a voltage stimulation was applied which is the summation of the four different frequency signals and return currents were measured using a transimpedance amplifier (TIA) configuration with a feedback gain of 18 MΩ. The magnitudes of the AC voltage signals were scaled to create similar output amplitudes that were measured by the TIA configuration (0.2 V/250 Hz, 0.08 V/1 kHz, 0.04 V/4 kHz, and 0.02 V/16 kHz for lateral field, 0.25 V/250 Hz, 0.1 V/1 kHz, 0.04 V/4 kHz, and 0.025 V/16 kHz for vertical field). Six of the 96 wells were scanned at a time taking 2.5 s, resulting in a total scan time across the well plate of 40 s. A fast Fourier transform (FFT) was used to extract the magnitude and phase of each of the four frequencies and the DC component—9 impedance parameter maps for each field configuration.
(§3) A reference impedance map was used to determine the location of cells: a threshold was set above the electrodes' default impedance in solution, and the presence of a cell above an electrode then increased the impedance beyond the threshold for detection. Typically, the VF 4 kHz map provided the best contrast for generating the cell mask. For magnitude, phase, and DC, the median value of electrodes with cells was then calculated. An additional epoxy mask was calculated in a similar manner to remove electrodes which had spillover epoxy from well plate attachment. Before each cell plating, a reference measurement was taken in empty culture media to calculate the epoxy mask.
(§4) Transient features such as motility and migration were generated from impedance videos through a root-mean-square (RMS) calculation. The difference between two unmasked image frames was taken (the epoxy mask was still used if applicable), then the RMS calculation was performed across the pixels of the difference map. To normalize for changes in magnitude, the calculated RMS was then divided by the median value of the cell-masked well distribution. Typically, the VF 4 kHz map was used for the RMS signal generation.
(§5) Compound treatments were performed using a half media exchange. To prepare for compound addition, half the media from each well was removed. […]

The test system of series [2] is Caco-2 cells. Nature of the series: Caco-2 impedance barrier function measurements (341 compound screen, dose response, Amonafide analogues). Format: cell-based, human. To be noted: dose response 1 nM to 10 μM.
The test system of series [3] is Caco-2 cells. Described as above. Type of series: cell-based, human. To be noted: for change in Caco-2 barrier function at 12 hours post-compound application: 10 μM, versus control; for barrier increase (maximum VF 250 Hz) over the 48-hours: screen at 10 μM. The procedure: To execute and analyze the screens, cells were seeded on five CMOS 96-wellplates, allowed to grow for 24 hours for A549 or 48 hours for Caco-2, compounds were added at 10 μM in 1% DMSO via a half media swap using an OpenTrons liquid handling robot. Effects were measured for 48 hours, with impedance measurements taken every 15 minutes. The many field/frequency and calculated parameters were then normalized to a timepoint one hour before compound addition. The array of normalized parameters at timepoints logarithmically spaced from compound addition to +48 hours were then used for a principal component analysis (PCA) and unbiased clustering using the top 20 PCA dimensions.
Compound treatments were performed using a half media exchange. To prepare for compound addition, half the media from each well was removed. Compounds were prepared at 2× concentration in cell culture media, and the 2× compound solution was then added to the wells. Care was taken to keep DMSO concentration below 1%, compound dilutions were performed with a constant DMSO concentration. Compound in media was temperature- and CO2-equilibrated prior to addition. All compounds including the 341 compound library were obtained from Selleckchem Chemicals (Houston, TX). For the screening analysis, the pathway and target information provided by Selleckchem Chemicals was curated together.
In the second approach, rather than comparing 5 measurement parameters, all field and calculation parameters were used to perform an unbiased phenotypic profiling with a larger compound library. A total of 341 compounds were chosen as a sub-set of an FDA approved library and applied on two cell types, A549 and Caco-2. At least two compounds per target were chosen for conserved phenotype effects. For the screens, compounds were added 24 or 48 hours post cell seeding and measured up to 48 hours after the compound addition. Time normalization, a principal component analysis (PCA), and unbiased clustering were sequentially performed on the high-dimensional data readouts (VF & LF magnitudes, phase, and DC). This unbiased approach ensured compound separation based solely on functional and morphological effects of the cells, with no bias of the targets/pathways of the compounds.

A further series deals with ZO-1 in Caco-2 cells. Nature of the series: Immunofluorescence imaging and quantification of ZO-1 in Caco-2 cells. To be noted: 48 hours post-compound treatment. Format: cell-based, human. Here is the method:
For immunofluorescence imaging, cells were grown on coverslips and then either allowed to grow for 48 hours or treated with relevant compounds for 48 hours. Cells were then fixed in 4% paraformaldehyde, washed, permeabilized with 0.5% Triton-X 100 in PBS, and then subjected to antibody incubation. Antibodies used were anti-E-Cadherin (obtained from Cell Signaling Technology, Danvers, MA, as cat no: 3195T), anti-ZO1 (obtained from Thermo Fisher, Waltham, MA, as cat no:617300) and anti-Occludin (obtained from Thermo Fisher as cat no: 331500). Alexa Fluor 488 and 568 secondary antibodies were used. Coverslips were mounted in Vectashield® antifade mounting medium with DAPI.
Imaging was performed using a Yokogawa Wi spinning disk confocal on an inverted Nikon Ti fluorescence microscope equipped with Hamamatsu ORCA-Fusion BT CMOS camera (6.5 μm^2 photodiode), Lumencor SOLA fluorescence light source, and Nikon LUN-F XL solid state laser combiner: 405 nm (80 mW), 445 nm (35 mW), 488 nm (80 mW), 514 nm (50 mW), 561 nm (65 mW), and 640 nm (60 mW). For imaging, the widefield modality of the microscope was typically used, and all imaging was done using a 20× objective. Acquisition was performed using consistent exposure across samples to enable intensity quantification. Images were processed using the open source image processing software FIJI.
Quantification of ZO-1 in the cell-membrane and nucleus was performed by manually defining ROIs for the cell membrane and nucleus. Mean integrated intensity was calculated within the ROI. All quantification was performed in raw, unprocessed images.

Another series relates to many cell types. Kind of series: Vertical field (VF) impedance across many cell types. Format: cell-based. The procedure: as §1, §2
In another series the test system is MDA-MB-231 cells. Kind of series: Live-cell impedance measurements of MDA-MB-231 cells after compound treatment. Format: cell-based, human. The procedure:
as §1, §2, §3, §4, §5

Entries after “also recorded” stand apart in the source; their conditions may differ.

Take `COc1cc(Nc2ncc3c(n2)-c2ccc(Cl)cc2C(c2c(F)cccc2OC)=NC3)ccc1C(=O)O` [Alisertib]: in series [1], the “ADPKD in animal models” value is recorded as “exacerbate”. Moreover, in the series on MDCK cells, the cell surface attachment result is recorded as “sharp decrease” and the transepithelial water transport entry is “accelerated”. In the series on MDCK cells (Alisertib 1 μM, Bosutinib 10 μM), the “domes (doming)” value is given as “increased doming; also recorded: Domes were only observed”. Moreover, the “water transport detachment (LF 16 kHz) with respect to the control” value in the series on MDCK cells (mean±s.d. for 3 wells) is on record as “accelerated”.
As to `CN(C)CCN1C(=O)c2cccc3cc(N)cc(c23)C1=O` [Amonafide], the “time course of barrier increase” value with Caco-2 cells [2] was “rapid increase in barrier; also recorded: rapid and sustained increase”. In the series on Caco-2 cells [3], the “change in Caco-2 barrier function at 12 hours post-compound application” value (“change in Caco-2 barrier function” below) is “rapid increase in barrier” and the “barrier increase (maximum VF 250 Hz) over the 48-hours” value is “largest barrier increase; also recorded: highest observed increase in barrier”. Also, the “ZO-1 levels and distribution (membrane, nucleus)” value (“ZO-1 levels and distribution” for short) in the series on ZO-1 in Caco-2 cells was “increase in membrane ZO-1 levels, with additional nuclear localization; also recorded: Significant increases in ZO-1 in the membrane and nucleus”.
For the compound `COc1ccc(C[C@H]2NC[C@H](O)[C@H]2OC(C)=O)cc1` [Anisomycin], the “VF (vertical field impedance)” value in the series with many cell types is listed as “increases in VF”.
With `Cc1cc(C2CCCCC2)n(O)c(=O)c1` [Ciclopirox], the “time course of barrier increase” value in the series on Caco-2 cells [2] is reported as “more gradual increase in barrier”. In addition, the “barrier increase (maximum VF 250 Hz) over the 48-hours” value with Caco-2 cells [3] is recorded as “largest barrier increase; also recorded: increased the barrier; also recorded: highest observed increase in barrier”. The “ZO-1 levels and distribution” value with ZO-1 in Caco-2 cells is “did not affect ZO-1 distribution or expression”.
With `C=C1[C@@H](C)[C@H]2[C@H](Cc3ccccc3)NC(=O)[C@]23[C@H](OC(C)=O)/C=C/[C@@](C)(O)C(=O)[C@@H](C)C/C=C/[C@H]3[C@@H]1O` [Cytochalasin D], in the series on MDA-MB-231 cells, the attachment result is recorded as “decreased”, the “concentration giving immediate cell size decrease” value is no less than 0.2 µM, the “concentration giving subsequent cell size increase” value was no less than 1 µM and the “motility (RMS)” value was “decrease”.
In the case of `CCN(CC)CCN1C(=O)c2cccc3cc(N)cc(c23)C1=O` [NSC 308848], the “change in Caco-2 barrier function” value in the series with Caco-2 cells [3] is “rapid increase in barrier”. Moreover, the “ZO-1 levels and distribution” value in the series on ZO-1 in Caco-2 cells is “Significant increases in ZO-1 in the membrane and nucleus”.
On to `CN(C)CCN1C(=O)c2cccc3cc(NC(N)=O)cc(c23)C1=O` [UNBS5162], for which the “change in Caco-2 barrier function” value in the series with Caco-2 cells [3] is “did not affect the barrier”. Besides, the “ZO-1 levels and distribution” value with ZO-1 in Caco-2 cells is “did not affect ZO-1 levels or distribution”.
